In article PMC8688152, “Distinct classes of potassium channels fused to GPCRs as electrical signaling biosensors” (Cell Reports Methods, 2021):

What was measured:
[1] = target: unfused D2L and mTREK-1 (D2+mTREK-1) (Homo sapiens, UniProt P14416); settings: control with co-expression of the unfused proteins, mean ± SEM
Description: (§1) Xenopus oocytes were prepared as previously reported ([Moreau et al., 2008]). Briefly, after surgical retrieval, the oocytes were defolliculated by type 1A collagenase. Each oocyte was injected with 50 nl of RNAse-free water containing the desired mRNAs. The mRNA quantities used per oocyte were: ICCR with Kcv, 2.7 ng (M2_Kcv and D2_Kcv) and 2.9 ng (OXTR_Kcv); ICCR with mTREK-1, 4.2 ng; ICCR with Kir6.2, 4.3 ng; M2, 2.3 ng; D2, 2.2 ng; Kir3.4T, 2.2 ng; Kcv 0.46 ng and mTREK-1, 2.1 ng. Microinjected oocytes were incubated 2 to 3 days at 19°C in modified-Barth's solution (in mM: 1 KCl, 0.82 MgSO4, 88 NaCl, 2.4 NaHCO3, 0.41 CaCl2, 16 HEPES, pH 7.4) supplemented with 100 U.ml^−1 of penicillin and streptomycin and 0.1 mg.mL^−1 of gentamycin. Animal handling and experiments fully conformed to European regulations and were approved by the French Ministry of Higher Education and Research (APAFIS#4420-2016030813053199 v4 to CM). Authorization of the animal facility has been delivered by the Prefect of Isere (Authorization #D 38 185 10 001).
(§2) Two-electrode voltage-clamp (TEVC) recordings were performed automatically with HiClamp robots (MultiChannel Systems). These TEVC robots rapidly change the applied solutions by transferring the oocytes in different wells of a 96-well plate. […] Microelectrodes were filled with […]. During recordings, oocytes were incubated in low potassium concentration buffer (ND96, in mM: 96 NaCl, 2 KCl, 1.8 CaCl2, 1 MgCl2, 5 HEPES, pH 7.4 supplemented with 0.3 niflumic acid), and in high potassium buffer (in mM: 91 KCl, 1.8 CaCl2, 1 MgCl2, 5 HEPES, 0.3 niflumic acid, pH 7.4). The membrane voltage was clamped to −50 mV. Ligands and BaCl2 were diluted in the high potassium buffer. […] Ligand effects were measured in high potassium concentration buffer with the membrane potential clamped to −50 mV and at 19°C.
(§3) Change of potassium current induced by ligand was calculated either with the barium-sensitive currents as a 0-reference for Kcv-based ICCRs or with the currents in ND96 for mTREK-1 ICCRs. Softwares created by Michel Vivaudou ([Vivaudou, 2019]) were used to extract the raw data.

D2_T+09M2-43 = D2_T+09M2-43 (UniProt P14416+P97438); settings: TEVC
Description: as §1, §2, §3

[2] = system: Kir3.4T co-expressed with D2_Kcv-00-03; settings: TEVC, Xenopus oocytes
Description: as §1, §2, §3

D2_T-00-43 = D2_T-00-43 (UniProt P14416+P97438); settings: weak inhibition, mean ± SEM
Description: as §1, §2, §3

D2_K+09M2-25 = settings: read-out: EC50 on the equivalent Kir6.2 ICCR (D2_K+09M2-25); ref Moreau et al., 2008; cited from earlier work
M2_T-00-43 [3] = target: T1, M2_T-00-43 (UniProt P08172+P97438); experiment: TEVC recording of M2_T-00-43 ICCR in Xenopus oocytes; type: cell-based, human (M2), mouse (TREK-1); parameters: full-length (−00) or M2 deleted of its last nine residues (−09) in the indicated ICCRs; expressed in transfected cells; host or cells: Xenopus oocytes (mRNA injection)
T1 sequence (P08172+P97438 with tags, fused parts or gaps): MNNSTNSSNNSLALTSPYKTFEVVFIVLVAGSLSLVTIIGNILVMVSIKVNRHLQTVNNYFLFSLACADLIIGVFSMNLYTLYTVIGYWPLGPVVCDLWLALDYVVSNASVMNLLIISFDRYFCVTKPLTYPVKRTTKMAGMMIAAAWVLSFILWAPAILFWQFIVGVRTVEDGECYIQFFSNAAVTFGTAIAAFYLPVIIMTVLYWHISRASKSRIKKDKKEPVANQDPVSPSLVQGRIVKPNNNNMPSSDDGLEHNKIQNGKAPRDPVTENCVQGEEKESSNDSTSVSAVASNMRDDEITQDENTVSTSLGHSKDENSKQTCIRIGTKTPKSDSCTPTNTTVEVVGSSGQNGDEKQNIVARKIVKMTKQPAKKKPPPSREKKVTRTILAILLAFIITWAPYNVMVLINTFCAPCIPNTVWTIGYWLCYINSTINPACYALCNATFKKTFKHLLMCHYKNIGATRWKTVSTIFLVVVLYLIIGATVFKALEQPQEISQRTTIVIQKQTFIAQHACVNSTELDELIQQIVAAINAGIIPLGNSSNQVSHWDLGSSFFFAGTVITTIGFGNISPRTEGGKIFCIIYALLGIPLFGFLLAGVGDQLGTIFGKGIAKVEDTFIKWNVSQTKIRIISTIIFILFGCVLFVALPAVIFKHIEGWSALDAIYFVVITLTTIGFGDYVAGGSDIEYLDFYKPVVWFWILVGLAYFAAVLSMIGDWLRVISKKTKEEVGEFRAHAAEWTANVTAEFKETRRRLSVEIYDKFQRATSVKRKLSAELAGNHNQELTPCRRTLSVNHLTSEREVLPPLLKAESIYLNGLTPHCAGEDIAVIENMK
Description: as §1, §2, §3

M2_Kir6.2-09-25 = system: M2_Kir6.2-09-25; parameters: method as in Moreau et al., 2017; settings: Kir6.2 ICCRs; ref Moreau et al., 2017; read-out: IC50 observed with Kir6.2 ICCRs; cited from earlier work
M2_Kcv-09-03 = target: T2, M2_Kcv-09-03 (UniProt P08172+Q84568); experiment: TEVC recording of M2_Kcv-09-03 ICCR expressed in Xenopus oocytes; type: cell-based, human (M2), Paramecium bursaria chlorella virus 1 (Kcv)
T2 construct: expressed in transfected cells; host or cells: Xenopus oocytes (mRNA injection)
T2 sequence (P08172+Q84568 with tags, fused parts or gaps): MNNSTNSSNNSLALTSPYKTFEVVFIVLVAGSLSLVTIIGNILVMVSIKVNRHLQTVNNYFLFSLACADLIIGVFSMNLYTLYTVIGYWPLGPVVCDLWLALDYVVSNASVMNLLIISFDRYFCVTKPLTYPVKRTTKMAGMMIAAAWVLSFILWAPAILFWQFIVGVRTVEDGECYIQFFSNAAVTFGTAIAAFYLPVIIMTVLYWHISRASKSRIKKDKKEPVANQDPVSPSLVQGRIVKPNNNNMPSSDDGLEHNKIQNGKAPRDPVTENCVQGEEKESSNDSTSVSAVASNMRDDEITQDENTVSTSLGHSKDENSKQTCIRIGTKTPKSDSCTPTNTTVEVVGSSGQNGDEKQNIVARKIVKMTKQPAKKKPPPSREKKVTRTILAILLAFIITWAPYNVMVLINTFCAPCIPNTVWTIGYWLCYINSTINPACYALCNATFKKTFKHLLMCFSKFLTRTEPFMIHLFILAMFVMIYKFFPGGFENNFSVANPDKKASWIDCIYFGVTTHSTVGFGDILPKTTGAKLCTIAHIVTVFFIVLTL
Description: (§4) Microelectrodes were filled with […]. […] The membrane voltage was clamped to −50 mV.

OXTR[T4L]_Kcv-42-03 = experiment: TEVC recording of OXTR[T4L]_Kcv-42-03 in Xenopus oocytes; type: cell-based, human (OXTR), Paramecium bursaria chlorella virus 1 (Kcv)
Description: as §1, with “Authorization of the animal facility has been delivered by the Prefect of Isere (Authorization #D 38 185 10 001).” left out
Two-electrode voltage-clamp (TEVC) recordings were performed automatically with HiClamp robots (MultiChannel Systems). […] Ligand effects were measured in high potassium concentration buffer with the membrane potential clamped to −50 mV and at 19°C.
Change of potassium current induced by ligand was calculated either with the barium-sensitive currents as a 0-reference for Kcv-based ICCRs or with the currents in ND96 for mTREK-1 ICCRs. […]

M2_T-00-43 [4] = target: T1, M2_T-00-43; experiment: Whole-cell patch-clamp on HEK293 cells expressing M2_T-00-43; type: cell-based, human (M2), mouse (TREK-1); parameters: expressed in transfected cells; host or cells: HEK293 (pIRES2-eGFP vector)
Description: HEK293 cells were grown in 75-mm tissue-culture dishes (Falcon, Franklin Lakes, NJ) in Dulbecco’s modified Eagle’s medium (Gibco, Life Technologies, Saint Aubin, France) supplemented with 10% fetal calf serum (Hyclone, Thermo Fisher Scientific GMBH, Ulm, Germany) and 1% penicillin/streptomycin (Gibco, Life Technologies, Saint Aubin, France) in a humidified incubator at 37 °C (5% CO2). For electrophysiology of ICCRs, […] of plasmid was transfected using Jet-PEI (PolyPlus Transfection, Illkirch FRANCE) according to the manufacturer’s instructions. Cells were plated onto 35-mm dishes 24 h before transfection, and experiments were performed over the following 1–2 days.
Pipettes were pulled from hematocrit-capillaries (Hirschmann Laborgeraete, Germany) using a vertical puller (PC-10, Narishige International, London, United Kingdom), and had resistances of 3–6 MΩ when filled with internal solution and measured in standard bath solution. Whole cell membrane currents were measured and filtered at 3 kHz by a MultiClamp 700A patch clamp amplifier (Molecular Devices), and digitized at 10 kHz using a 12-bit analog-to-digital converter Digidata-1322A (Axon Instrument, Sunnyvale, CA, United States). Recordings were done using Clampex 9 software (Axon Instrument). […]

mTREK-1 −43 = target: T3, mTREK-1 −43 (Mus musculus, UniProt P97438); experiment: TEVC control: unfused N-terminally truncated mTREK-1 −43; type: cell-based; settings: 10 μM BL1249, TEVC
T3 construct: expressed in transfected cells; host or cells: Xenopus oocytes (mRNA injection); gene synthesized by GeneCust
Description: as §4

[5] = concentration-effect curve, TEVC

Sequence of D2_T+09M2-43 (P14416+P97438 fused): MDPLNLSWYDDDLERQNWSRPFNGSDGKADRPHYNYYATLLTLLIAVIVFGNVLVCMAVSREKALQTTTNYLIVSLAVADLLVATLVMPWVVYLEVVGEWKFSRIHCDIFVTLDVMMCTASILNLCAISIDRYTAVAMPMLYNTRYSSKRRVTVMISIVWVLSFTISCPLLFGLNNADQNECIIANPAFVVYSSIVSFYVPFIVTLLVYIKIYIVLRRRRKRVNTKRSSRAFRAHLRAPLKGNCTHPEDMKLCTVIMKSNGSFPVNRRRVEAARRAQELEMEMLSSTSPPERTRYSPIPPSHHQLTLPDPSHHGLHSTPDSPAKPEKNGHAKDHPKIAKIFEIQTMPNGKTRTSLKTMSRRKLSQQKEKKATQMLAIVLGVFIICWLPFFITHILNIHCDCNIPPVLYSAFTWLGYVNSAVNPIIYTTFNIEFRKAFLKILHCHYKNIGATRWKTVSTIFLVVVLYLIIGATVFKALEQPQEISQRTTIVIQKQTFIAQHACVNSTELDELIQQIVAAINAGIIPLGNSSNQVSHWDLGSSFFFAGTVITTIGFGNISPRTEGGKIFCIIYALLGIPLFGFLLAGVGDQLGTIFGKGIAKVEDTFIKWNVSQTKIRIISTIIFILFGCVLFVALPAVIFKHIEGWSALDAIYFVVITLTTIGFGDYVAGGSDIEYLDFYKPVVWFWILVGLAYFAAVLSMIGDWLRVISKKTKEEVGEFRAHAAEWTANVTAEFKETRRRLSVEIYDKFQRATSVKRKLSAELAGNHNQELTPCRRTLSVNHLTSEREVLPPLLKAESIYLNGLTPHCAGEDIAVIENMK
Sequence of unfused D2L and mTREK-1 (D2+mTREK-1) (P14416 whole entry, the tested form may be a part): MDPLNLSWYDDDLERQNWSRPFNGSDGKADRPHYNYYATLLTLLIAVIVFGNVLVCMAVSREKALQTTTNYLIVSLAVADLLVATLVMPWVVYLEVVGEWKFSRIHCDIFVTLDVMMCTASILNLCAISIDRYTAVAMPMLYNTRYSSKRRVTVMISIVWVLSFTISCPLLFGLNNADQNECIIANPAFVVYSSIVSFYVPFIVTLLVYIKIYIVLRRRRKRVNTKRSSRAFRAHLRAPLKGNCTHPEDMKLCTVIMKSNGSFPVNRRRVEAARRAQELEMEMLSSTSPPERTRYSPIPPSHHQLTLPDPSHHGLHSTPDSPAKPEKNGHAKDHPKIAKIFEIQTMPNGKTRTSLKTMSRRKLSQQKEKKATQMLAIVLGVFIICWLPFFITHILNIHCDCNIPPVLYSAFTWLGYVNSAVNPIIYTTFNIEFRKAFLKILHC
Sequence of D2_T-00-43 (P14416+P97438 fused): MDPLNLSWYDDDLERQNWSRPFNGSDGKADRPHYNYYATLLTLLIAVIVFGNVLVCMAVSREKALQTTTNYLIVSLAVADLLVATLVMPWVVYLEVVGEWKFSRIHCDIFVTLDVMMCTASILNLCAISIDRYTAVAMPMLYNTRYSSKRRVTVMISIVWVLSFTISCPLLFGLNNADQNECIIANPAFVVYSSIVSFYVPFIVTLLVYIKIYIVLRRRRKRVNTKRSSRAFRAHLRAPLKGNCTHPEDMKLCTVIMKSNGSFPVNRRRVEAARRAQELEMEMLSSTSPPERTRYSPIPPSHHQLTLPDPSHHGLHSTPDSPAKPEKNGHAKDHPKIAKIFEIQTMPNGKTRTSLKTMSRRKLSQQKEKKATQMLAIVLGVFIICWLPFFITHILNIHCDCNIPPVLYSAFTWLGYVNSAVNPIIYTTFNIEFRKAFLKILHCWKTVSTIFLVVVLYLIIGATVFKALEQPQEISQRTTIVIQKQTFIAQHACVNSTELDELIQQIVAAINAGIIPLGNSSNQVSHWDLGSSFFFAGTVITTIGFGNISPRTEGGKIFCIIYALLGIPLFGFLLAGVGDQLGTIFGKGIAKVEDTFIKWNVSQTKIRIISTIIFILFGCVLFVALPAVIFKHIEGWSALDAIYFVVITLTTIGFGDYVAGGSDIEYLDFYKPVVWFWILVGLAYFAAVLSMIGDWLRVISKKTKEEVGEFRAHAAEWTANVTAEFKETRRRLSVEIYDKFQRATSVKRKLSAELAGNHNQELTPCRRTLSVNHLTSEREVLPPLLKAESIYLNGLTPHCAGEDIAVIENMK

## NCCc1ccc(O)c(O)c1 [dopamine]
[1]
  % of current change induced by 5 μM dopamine on unfused D2 + mTREK-1: −2.2% ± 1.3%
D2_T+09M2-43; 5 μM, Xenopus oocytes, mean ± SEM
  activation: % of current change induced by 5 μM dopamine on D2_T+09M2-43: 12.1% ± 1.7%
D2_T+09M2-43; concentration-effect curve
  Hill coefficient (nH) on D2_T+09M2-43: 0.76
[2]
  G protein activation (Kir3.4T) by D2_Kcv-00-03 upon dopamine application: triggers the activation of the endogenous Gi/o proteins
D2_T-00-43
  % of current change induced by 5 μM dopamine on D2_T-00-43: −4.1% ± 0.6%
D2_K+09M2-25
  EC50: 0.4 µM

## C[N+](C)(C)CCOC(N)=O [CCh, carbachol]
M2_T-00-43 [3]; [5]
  Hill coefficient (nH) on M2_T-00-43: 0.97
M2_Kir6.2-09-25
  IC50: 1.2 µM
M2_Kcv-09-03; [5]
  Hill coefficient (nH) on M2_Kcv-09-03: 0.98

## oxytocin
OXTR[T4L]_Kcv-42-03
  response of OXTR[T4L]_Kcv-42-03 to oxytocin: did not induce any response

## CN1[C@@H]2CC[C@H]1C[C@@H](OC(=O)C(CO)c1ccccc1)C2 (stereo partly drawn) [atropine]
M2_T-00-43 [3]
  effect of atropine co-application on ACh-induced activation of M2_T-00-43: inhibited ACh-induced activation
M2_Kcv-09-03; 1 μM atropine co-applied with ACh 5 μM
  effect of atropine co-application on the ACh response of M2_Kcv-09-03: almost entirely abolished the ACh response

## c1ccc(-c2nn[nH]n2)c(Nc2cccc3c2CCCC3)c1 [BL1249]
M2_T-00-43 [4]; 10 μM BL1249, mean ± SEM
  activation of M2_T-00-43: increase of the current: 880% ± 190%
mTREK-1 −43
  activation of unfused truncated mTREK-1 −43 by BL1249, compared with WT channel: lower activation

## spadin
M2_T-00-43 [4]; 1 μM spadin with 10 μM BL1249, mean ± SEM
  inhibition of BL1249 activation of M2_T-00-43: 56.8% ± 9.1%
